The values below come from patent US20130303509A1, “NAMPT INHIBITORS” (AbbVie Inc., priority 2012, published 2013).

Molecules are shown by their SMILES.

This assay concerns PC3 cells. The assay is described as follows: NAMPT Cell Proliferation Assay. The assay is classed as cell-based. The note with it: Homo sapiens, PC-3, 120 h, 5 days incubation, cell viability by Cell Titer Glo. In outline: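 Seeded at 500 cells/well in RPMI with 10% heat-inactivated FBS and left to attach overnight at 37° C, 5% CO2. Compounds were added as 10-fold dilutions […] for 5 days, then viability was read by CellTiter-Glo. IC50s came from sigmoidal fits of percent inhibition.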
Compound `O=C(Nc1ccc(C2CCN(C(=O)c3cccc(OC(F)(F)F)c3)CC2)cc1)[C@H]1CCN(c2cccnn2)C1` [Example 701, (3S)-1-(pyridazin-3-yl)-N-(4-{1-[3-(trifluoromethoxy)benzoyl]piperidin-4-yl}phenyl)pyrrolidine-3-carboxamide] came in with an IC50 of 75.2 nM.
For `O=C(Nc1ccc(C2CCN(C(=O)C3(c4ccccc4)CC3)CC2)cc1)[C@H]1CCN(c2cccnn2)C1` [Example 702, (3S)-N-(4-{1-[(1-phenylcyclopropyl)carbonyl]piperidin-4-yl}phenyl)-1-(pyridazin-3-yl)pyrrolidine-3-carboxamide] the value was 2.07 nM; for `O=C(Nc1ccc(C2CCN(C(=O)c3cc(C(F)(F)F)ccc3F)CC2)cc1)[C@H]1CCN(c2cccnn2)C1` [Example 703, (3S)-N-(4-{1-[2-fluoro-5-(trifluoromethyl)benzoyl]piperidin-4-yl}phenyl)-1-(pyridazin-3-yl)pyrrolidine-3-carboxamide], 8.43 nM; for `O=C(Nc1ccc(C2CCN(C(=O)CC3CCCCC3)CC2)cc1)[C@H]1CCN(c2cccnn2)C1` [Example 704, (3S)-N-{4-[1-(cyclohexylacetyl)piperidin-4-yl]phenyl}-1-(pyridazin-3-yl)pyrrolidine-3-carboxamide], 5.3 nM.
For `COc1ccc(C(=O)N2CCC(c3ccc(NC(=O)[C@H]4CCN(c5cccnn5)C4)cc3)CC2)cc1` [Example 705, (3S)-N-{4-[1-(4-methoxybenzoyl)piperidin-4-yl]phenyl}-1-(pyridazin-3-yl)pyrrolidine-3-carboxamide] the value was 20.2 nM.
For `CCC(C)C(=O)N1CCC(c2ccc(NC(=O)[C@H]3CCN(c4cccnn4)C3)cc2)CC1` (stereo partly drawn) [Example 706, (3S)-N-{4-[1-(2-methylbutanoyl)piperidin-4-yl]phenyl}-1-(pyridazin-3-yl)pyrrolidine-3-carboxamide] the value was 7.7 nM; for `CCC(CC)C(=O)N1CCC(c2ccc(NC(=O)[C@H]3CCN(c4cccnn4)C3)cc2)CC1` [Example 707, (3S)-N-{4-[1-(2-ethylbutanoyl)piperidin-4-yl]phenyl}-1-(pyridazin-3-yl)pyrrolidine-3-carboxamide], 6.93 nM; for `CC(C)(C)c1ccc(C(=O)N2CCC(c3ccc(NC(=O)[C@H]4CCN(c5cccnn5)C4)cc3)CC2)cc1` [Example 708, (3S)-N-{4-[1-(4-tert-butylbenzoyl)piperidin-4-yl]phenyl}-1-(pyridazin-3-yl)pyrrolidine-3-carboxamide], 14.2 nM.
In turn, `O=C(Nc1ccc(C2CCN(C(=O)c3cccc(Cl)c3)CC2)cc1)[C@H]1CCN(c2cccnn2)C1` [Example 709, (3S)-N-{4-[1-(3-chlorobenzoyl)piperidin-4-yl]phenyl}-1-(pyridazin-3-yl)pyrrolidine-3-carboxamide] showed an IC50 of 14.5 nM. This IC50 and that of the compound before are within 1.5-fold of each other.
Under `O=C(Nc1ccc(C2CCN(C(=O)Cc3ccccc3F)CC2)cc1)[C@H]1CCN(c2cccnn2)C1` [Example 710, (3S)-N-(4-{1-[(2-fluorophenyl)acetyl]piperidin-4-yl}phenyl)-1-(pyridazin-3-yl)pyrrolidine-3-carboxamide] stands 10.3 nM; under `O=C(Nc1ccc(C2CCN(C(=O)c3cccc(C(F)(F)F)c3)CC2)cc1)[C@H]1CCN(c2cccnn2)C1` [Example 711, (3S)-1-(pyridazin-3-yl)-N-(4-{1-[3-(trifluoromethyl)benzoyl]piperidin-4-yl}phenyl)pyrrolidine-3-carboxamide], 59.5 nM; under `CC1(C(=O)N2CCC(c3ccc(NC(=O)[C@H]4CCN(c5cccnn5)C4)cc3)CC2)CC1` [Example 712, (3S)-N-(4-{1-[(1-methylcyclopropyl)carbonyl]piperidin-4-yl}phenyl)-1-(pyridazin-3-yl)pyrrolidine-3-carboxamide], 6.79 nM.
For `C#CCCC(=O)N1CCC(c2ccc(NC(=O)[C@H]3CCN(c4cccnn4)C3)cc2)CC1` [Example 713, (3S)-N-{4-[1-(pent-4-ynoyl)piperidin-4-yl]phenyl}-1-(pyridazin-3-yl)pyrrolidine-3-carboxamide] the value was 9.99 nM.
For `O=C(Nc1ccc(C2CCN(C(=O)Cc3cccc(F)c3)CC2)cc1)[C@H]1CCN(c2cccnn2)C1` [Example 714, (3S)-N-(4-{1-[(3-fluorophenyl)acetyl]piperidin-4-yl}phenyl)-1-(pyridazin-3-yl)pyrrolidine-3-carboxamide] the value was 17.6 nM; for `CSCCC(=O)N1CCC(c2ccc(NC(=O)[C@H]3CCN(c4cccnn4)C3)cc2)CC1` [Example 715, (3S)-N-(4-{1-[3-(methylsulfanyl)propanoyl]piperidin-4-yl}phenyl)-1-(pyridazin-3-yl)pyrrolidine-3-carboxamide], 11.8 nM; for `CC(=O)N1CCC(C(=O)N2CCC(c3ccc(NC(=O)[C@H]4CCN(c5cccnn5)C4)cc3)CC2)CC1` [Example 716, (3S)-N-(4-{1-[(1-acetylpiperidin-4-yl)carbonyl]piperidin-4-yl}phenyl)-1-(pyridazin-3-yl)pyrrolidine-3-carboxamide], 69.2 nM.
`C=CCC(=O)N1CCC(c2ccc(NC(=O)[C@H]3CCN(c4cccnn4)C3)cc2)CC1` [Example 717, (3S)-N-{4-[1-(but-3-enoyl)piperidin-4-yl]phenyl}-1-(pyridazin-3-yl)pyrrolidine-3-carboxamide] showed an IC50 of 12.1 nM.
For `CCC(C)(C)C(=O)N1CCC(c2ccc(NC(=O)[C@H]3CCN(c4cccnn4)C3)cc2)CC1` [Example 718, (3S)-N-{4-[1-(2,2-dimethylbutanoyl)piperidin-4-yl]phenyl}-1-(pyridazin-3-yl)pyrrolidine-3-carboxamide] the value was 6.27 nM; for `Cc1ccc(C(=O)N2CCC(c3ccc(NC(=O)[C@H]4CCN(c5cccnn5)C4)cc3)CC2)cc1F` [Example 719, (3S)-N-{4-[1-(3-fluoro-4-methylbenzoyl)piperidin-4-yl]phenyl}-1-(pyridazin-3-yl)pyrrolidine-3-carboxamide], 9.63 nM.
For `COc1cccc(C(=O)N2CCC(c3ccc(NC(=O)[C@H]4CCN(c5cccnn5)C4)cc3)CC2)c1` [Example 720, (3S)-N-{4-[1-(3-methoxybenzoyl)piperidin-4-yl]phenyl}-1-(pyridazin-3-yl)pyrrolidine-3-carboxamide] the value was 8.57 nM.
Under `O=C(Nc1ccc(C2CCN(C(=O)Cc3ccccc3Cl)CC2)cc1)[C@H]1CCN(c2cccnn2)C1` [Example 721, (3S)-N-(4-{1-[(2-chlorophenyl)acetyl]piperidin-4-yl}phenyl)-1-(pyridazin-3-yl)pyrrolidine-3-carboxamide] stands 8.39 nM; under `COCCOCC(=O)N1CCC(c2ccc(NC(=O)[C@H]3CCN(c4cccnn4)C3)cc2)CC1` [Example 722, (3S)-N-(4-{1-[(2-methoxyethoxy)acetyl]piperidin-4-yl}phenyl)-1-(pyridazin-3-yl)pyrrolidine-3-carboxamide], 84.8 nM.
The compound `CC(C)(C)CC(=O)N1CCC(c2ccc(NC(=O)[C@H]3CCN(c4cccnn4)C3)cc2)CC1` [Example 723, (3S)-N-{4-[1-(3,3-dimethylbutanoyl)piperidin-4-yl]phenyl}-1-(pyridazin-3-yl)pyrrolidine-3-carboxamide] registered an IC50 of 3.51 nM.
In turn, `CC(=O)N[C@@H](CC(C)C)C(=O)N1CCC(c2ccc(NC(=O)[C@H]3CCN(c4cccnn4)C3)cc2)CC1` [Example 724, (3S)-N-{4-[1-(N-acetyl-L-leucyl)piperidin-4-yl]phenyl}-1-(pyridazin-3-yl)pyrrolidine-3-carboxamide] came in with an IC50 of 80.9 nM.
For `O=C(Nc1ccc(C2CCN(C(=O)c3cccc(F)c3)CC2)cc1)[C@H]1CCN(c2cccnn2)C1` [Example 725, (3S)-N-{4-[1-(3-fluorobenzoyl)piperidin-4-yl]phenyl}-1-(pyridazin-3-yl)pyrrolidine-3-carboxamide] the value was 4.01 nM; for `N#Cc1ccc(C(=O)N2CCC(c3ccc(NC(=O)[C@H]4CCN(c5cccnn5)C4)cc3)CC2)cc1` [Example 726, (3S)-N-{4-[1-(4-cyanobenzoyl)piperidin-4-yl]phenyl}-1-(pyridazin-3-yl)pyrrolidine-3-carboxamide], 32.7 nM.
Under `COc1ccccc1C(=O)N1CCC(c2ccc(NC(=O)[C@H]3CCN(c4cccnn4)C3)cc2)CC1` [Example 727, (3S)-N-{4-[1-(2-methoxybenzoyl)piperidin-4-yl]phenyl}-1-(pyridazin-3-yl)pyrrolidine-3-carboxamide] stands 4.6 nM; under `Cc1cccc(C(=O)N2CCC(c3ccc(NC(=O)[C@H]4CCN(c5cccnn5)C4)cc3)CC2)c1C` [Example 728, (3S)-N-{4-[1-(2,3-dimethylbenzoyl)piperidin-4-yl]phenyl}-1-(pyridazin-3-yl)pyrrolidine-3-carboxamide], 6.97 nM; under `CC(C)c1ccc(C(=O)N2CCC(c3ccc(NC(=O)[C@H]4CCN(c5cccnn5)C4)cc3)CC2)cc1` [Example 729, (3S)-N-(4-{1-[4-(propan-2-yl)benzoyl]piperidin-4-yl}phenyl)-1-(pyridazin-3-yl)pyrrolidine-3-carboxamide], 13.5 nM.
The compound `O=C(Nc1ccc(C2CCN(C(=O)C3CCCCC3)CC2)cc1)[C@H]1CCN(c2cccnn2)C1` [Example 730, (3S)-N-{4-[1-(cyclohexylcarbonyl)piperidin-4-yl]phenyl}-1-(pyridazin-3-yl)pyrrolidine-3-carboxamide] had an IC50 of 6.81 nM.
For `O=C(Nc1ccc(C2CCN(C(=O)c3cccs3)CC2)cc1)[C@H]1CCN(c2cccnn2)C1` [Example 731, (3S)-1-(pyridazin-3-yl)-N-{4-[1-(thiophen-2-ylcarbonyl)piperidin-4-yl]phenyl}pyrrolidine-3-carboxamide] the value was 0.5 nM.
Under `O=C(Nc1ccc(C2CCN(C(=O)c3ccc(O)cc3)CC2)cc1)[C@H]1CCN(c2cccnn2)C1` [Example 732, (3S)-N-{4-[1-(4-hydroxybenzoyl)piperidin-4-yl]phenyl}-1-(pyridazin-3-yl)pyrrolidine-3-carboxamide] stands 29.9 nM.

The IC50 is the concentration at which inhibition is half-maximal. A low value points to greater potency.
